# Measurements taken from patent US5491131A, “Somatostatin-active polypeptide composition” (Applied Research Systems ARS Holding NV, priority 1989, dated 1996).
# “Also recorded” adds a separate entry of the source.
# Experiments:
# [1] = tested on: rat mesangial cells in culture; experiment: Prevention of angiotensin II induced contraction of mesangial cells (cell surface area, CSA); type: cell-based, Wistar rats; conditions: for effect on contractile effect of angiotensin (CSA): preincubation 10 minutes before angiotensin II 10^-8 M
# Procedure: (§1) The mesangial cells were obtained after glomeruli isolation by differential sieving (R. P. Misra. Am. J. Clin. Pathol 1972 58 135-139) and collagenase digestion of kidney tissue from Wistar rats. The cell surface area (CSA) was measured using a digital planimeter.
# In experiments concerned with the ability of somatostatin to prevent contraction, the mesangial cells were incubated with somatostatin for ten minutes at a concentration of 10^-6 M or 10^-8 M before the addition of angiotensin II (10^-8 M) or hydrogen peroxide (10^-4 M).
# (§2) In all these experiments, control cells lacked the addition of somatostatin, angiotensin II or hydrogen peroxide to the buffer.
# (§3) Microphotographs were taken at different times and the CSA measured. Each experiment was repeated three times and a total of 8-15 cells were measured for each part of each experiment. The results are expressed as a percentage increase or decrease over the initial CSA, […].
# [2] = tested on: rat mesangial cells in culture; experiment: Reversal of angiotensin II induced contraction of mesangial cells (CSA); type: cell-based, Wistar rats; conditions: FIG. 3
# Procedure: as §1
# In experiments concerned with the ability of somatostatin to revese contraction, the mesangial cells were incubated for 30 minutes with either angiotensin II or hydrogen peroxide (at the concentrations mentioned above) before somatostatin at a concentration of 10^-6 M or 10^-8 M was added to the cells.
# as §2, §3
# [3] = tested on: rat mesangial cells in culture; experiment: Prevention of hydrogen peroxide induced contraction of mesangial cells (CSA); type: cell-based, Wistar rats; conditions: for effect on hydrogen peroxide induced reduction in CSA: preincubation 10 minutes before hydrogen peroxide 10^-4 M; for change in CSA compared with the control: somatostatin alone
# Procedure: as §1, §3
# [4] = tested on: rat mesangial cells in culture; experiment: Reversal of hydrogen peroxide induced contraction of mesangial cells (CSA); type: cell-based, Wistar rats; conditions: for effect on CSA of untreated cells: somatostatin alone
# Procedure: as §1, §3
# [5] = somatostatin infusions of 250 to 375 microgrammes; cited from earlier work
# [6] = in vivo; cited from earlier work
# guanylate cyclase = conditions: some cell types; cited from earlier work
compound,measurement,setting,value
"C[C@H](N)C(=O)NCC(=O)N[C@H]1CSSC[C@@H](C(=O)O)NC(=O)[C@H](CO)NC(=O)[C@H]([C@@H](C)O)NC(=O)[C@H](Cc2ccccc2)NC(=O)[C@H]([C@@H](C)O)NC(=O)[C@H](CCCCN)NC(=O)[C@H](Cc2c[nH]c3ccccc23)NC(=O)[C@H](Cc2ccccc2)NC(=O)[C@H](Cc2ccccc2)NC(=O)[C@H](CC(N)=O)NC(=O)[C@H](CCCCN)NC1=O [somatostatin, Somatostatin]",cell size in microphotographs,"[1]; cells pre-treated with somatostatin before addition of angiotensin II, FIG. 12",substantially no change in the size of these cells
same,effect on contractile effect of angiotensin (CSA),"[1]; somatostatin 10^-6 M, FIG. 1",completely preventing the contractile effect of angiotensin II; also recorded: completely inhibited the contractile effect of angiotensin
same,effect on contractile effect of angiotensin (CSA),"[1]; somatostatin 10^-8 M, FIG. 2",the same effect occurs
same,effect in isolation on CSA,"[1]; somatostatin alone, 10^-6 M, FIG. 1",no significant effect
same,"change in CSA, incubated in isolation","[2]; somatostatin alone, 10^-6 M",did not observe any significant change in CSA
same,effect on hydrogen peroxide induced reduction in CSA,"[3]; somatostatin 10^-6 M, FIG. 5",equally effective in preventing the contractile effect; also recorded: prevented
same,effect on hydrogen peroxide induced reduction in CSA,"[3]; somatostatin 10^-8 M, FIG. 6",prevented
same,change in CSA compared with the control,"[3]; 10^-6 M, FIG. 5",did not in itself induce any significant change in CSA
same,change in CSA compared with the control,"[3]; 10^-8 M, FIG. 6",did not in itself induce any significant change in CSA
same,cell size in microphotographs,"[4]; hydrogen peroxide at t=0, somatostatin added at t=30 minutes, read at t=60 minutes, FIG. 11",relax to almost their original size
same,reversal of contractile effect of hydrogen peroxide (CSA),"[4]; somatostatin 10^-6 M added 30 minutes after hydrogen peroxide 10^-4 M, read after a further 30 minutes, FIG. 7",reverses contraction; also recorded: CSA returns to normal
same,reversal of contractile effect of hydrogen peroxide (CSA),"[4]; somatostatin 10^-8 M added 30 minutes after hydrogen peroxide 10^-4 M, FIG. 8",The same effect was demonstrated
same,effect on CSA of untreated cells,"[4]; 10^-6 M, FIG. 7",did not significantly effect CSA
same,effect on CSA of untreated cells,"[4]; 10^-8 M, FIG. 8",did not significantly effect CSA
same,reduction in heart rate,[5],about 10 beats per minute
same,urinary calcium excretion,[6],reduces
same,intracellular cGMP concentrations,guanylate cyclase,increase intracellular cGMP concentrations
angiotensin II [contractile stimulus added to mesangial cells at 10^-8 M],effect on CSA,"[1]; angiotensin II 10^-8 M alone, after 30 minutes incubation",significantly reducing the CSA
same,persistence of induced contraction,[2]; angiotensin II 10^-8 M alone,persisted for 60 minutes
OO [hydrogen peroxide],effect on CSA,[3]; hydrogen peroxide 10^-4 M alone,significant reduction in CSA
same,contraction of cells treated with only hydrogen peroxide,"[4]; hydrogen peroxide 10^-4 M alone, t=0 to t=60 minutes, FIGS. 7, 8, 10",remained in a contracted state; also recorded: contracted to a significant degree
